Experimental data reported in ChEMBL document CHEMBL4706583, “2-Anilinoquinoline based arylamides as broad spectrum anticancer agents with B-RAF/C-RAF kinase inhibitory effects: Design, synthesis, in vitro cell-based and oncogenic kinase assessments” (Eur J Med Chem, 2020).
Activity calls are given as the source filed them. The rule behind the calls is not given here.

Assays:
HCT-116 [1] = experiment: Induction of apoptosis in human HCT-116 cells assessed as necrotic cells at 1.25 uM measured after 48 hrs by Annexin-V Alexa Fluor488/propidium iodide staining based flow cytometry (reference value: 7.7%); type: functional
SF-268 = experiment: Growth inhibition of human SF-268 cells measured after 48 hrs by SRB assay; type: functional
DU-145 = experiment: Growth inhibition of human DU-145 cells measured after 48 hrs by SRB assay; type: functional
COLO 205 = experiment: Growth inhibition of human COLO 205 cells measured after 48 hrs by SRB assay; type: functional
[2] = molecular target: Epithelial discoidin domain-containing receptor 1 (Homo sapiens, UniProt Q08345); experiment: Inhibition of human DDR1 using KKSRGDYMTMQIG as substrate in presence of [gamma-33P]ATP by scintillation counting method
Epithelial discoidin domain-containing receptor 1, sequence (Q08345 whole entry, the tested form may be a part): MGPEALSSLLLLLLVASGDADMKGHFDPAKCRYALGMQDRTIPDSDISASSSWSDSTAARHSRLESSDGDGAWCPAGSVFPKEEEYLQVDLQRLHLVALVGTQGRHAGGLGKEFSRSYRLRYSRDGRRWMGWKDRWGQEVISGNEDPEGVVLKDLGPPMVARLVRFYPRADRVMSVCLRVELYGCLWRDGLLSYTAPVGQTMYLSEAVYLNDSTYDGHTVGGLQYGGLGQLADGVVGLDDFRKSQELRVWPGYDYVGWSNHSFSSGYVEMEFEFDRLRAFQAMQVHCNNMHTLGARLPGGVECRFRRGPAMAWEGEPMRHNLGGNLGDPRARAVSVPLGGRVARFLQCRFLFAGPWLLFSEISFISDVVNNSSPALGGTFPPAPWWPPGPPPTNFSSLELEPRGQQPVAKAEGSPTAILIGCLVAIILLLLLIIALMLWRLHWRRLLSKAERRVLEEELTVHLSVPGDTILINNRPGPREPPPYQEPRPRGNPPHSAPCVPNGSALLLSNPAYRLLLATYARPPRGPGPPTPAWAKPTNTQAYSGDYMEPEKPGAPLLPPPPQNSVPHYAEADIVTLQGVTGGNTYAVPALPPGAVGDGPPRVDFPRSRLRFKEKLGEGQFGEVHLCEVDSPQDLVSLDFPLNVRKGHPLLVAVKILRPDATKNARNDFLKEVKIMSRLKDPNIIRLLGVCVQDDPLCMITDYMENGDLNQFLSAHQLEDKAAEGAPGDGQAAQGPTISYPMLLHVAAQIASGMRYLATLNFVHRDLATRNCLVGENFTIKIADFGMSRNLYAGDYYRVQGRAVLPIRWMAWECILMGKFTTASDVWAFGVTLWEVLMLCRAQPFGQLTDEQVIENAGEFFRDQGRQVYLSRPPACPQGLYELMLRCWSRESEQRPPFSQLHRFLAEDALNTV

[3] = Cytotoxicity against human L132 cells assessed as cell viability at 10 uM measured after 48 hrs by EZ-Cytox assay relative to control; type: cell-based; details: read-out: Activity
HOP-92 = experiment: Growth inhibition of human HOP-92 cells measured after 48 hrs by SRB assay; type: functional; details: for CC50: read-out: LC50 (the source's name)
HCT-116 [4] = experiment: Induction of apoptosis in human HCT-116 cells assessed as late apoptotic cells at 5 uM measured after 48 hrs by Annexin-V Alexa Fluor488/propidium iodide staining based flow cytometry (reference value: 2.2%); type: functional
HCT-15 = experiment: Growth inhibition of human HCT-15 cells measured after 48 hrs by SRB assay; type: functional
MCF7 = experiment: Growth inhibition of human MCF7 cells measured after 48 hrs by SRB assay; type: functional
[5] = Cytotoxicity against human L132 cells assessed as cell viability at 1 uM measured after 48 hrs by EZ-Cytox assay relative to control; type: cell-based; details: read-out: Activity
OVCAR-8 = experiment: Growth inhibition of human OVCAR-8 cells measured after 48 hrs by SRB assay; type: functional
Sus scrofa = species on record: Sus scrofa; experiment: Induction of porcine brain tubulin polymerization at 10 uM measured at 30 secs interval for 60 mins by fluorescence assay; type: tissue-based
HL-60(TB) = experiment: Growth inhibition of human HL-60(TB) cells measured after 48 hrs by SRB assay; type: functional
HCT-116 [6] = experiment: Induction of apoptosis in human HCT-116 cells assessed as early apoptotic cells at 5 uM measured after 24 hrs by Annexin-V Alexa Fluor488/propidium iodide staining based flow cytometry (reference value: 6.3%); type: functional
SR = experiment: Growth inhibition of human SR cells measured after 48 hrs by SRB assay; type: functional
RXF 393 = experiment: Growth inhibition of human RXF 393 cells measured after 48 hrs by SRB assay; type: functional
SK-MEL-28 = experiment: Growth inhibition of human SK-MEL-28 cells measured after 48 hrs by SRB assay; type: functional
HCT-116 [7] = experiment: Induction of apoptosis in human HCT-116 cells assessed as necrotic cells at 1.25 uM measured after 24 hrs by Annexin-V Alexa Fluor488/propidium iodide staining based flow cytometry (reference value: 4.6%); type: functional
IGROV-1 = experiment: Growth inhibition of human IGROV-1 cells measured after 48 hrs by SRB assay; type: functional
HCT-116 [8] = experiment: Induction of apoptosis in human HCT-116 cells assessed as late apoptotic cells at 1.25 uM measured after 24 hrs by Annexin-V Alexa Fluor488/propidium iodide staining based flow cytometry (reference value: 1%); type: functional
SN12C = experiment: Growth inhibition of human SN12C cells measured after 48 hrs by SRB assay; type: functional
NCI-H322M = experiment: Growth inhibition of human NCI-H322M cells measured after 48 hrs by SRB assay; type: functional
HCT-116 [9] = experiment: Induction of apoptosis in human HCT-116 cells assessed as early apoptotic cells at 2.5 uM measured after 24 hrs by Annexin-V Alexa Fluor488/propidium iodide staining based flow cytometry (reference value: 6.3%); type: functional
ACHN = experiment: Growth inhibition of human ACHN cells measured after 48 hrs by SRB assay; type: functional
NCI-H23 = experiment: Growth inhibition of human NCI-H23 cells measured after 48 hrs by SRB assay; type: functional
T47D = experiment: Growth inhibition of human T47D cells measured after 48 hrs by SRB assay; type: functional
[10] = molecular target: Serine/threonine-protein kinase B-raf (Homo sapiens, UniProt P15056, V600E); experiment: Inhibition of human BRAF V600E mutant using MEK1 (K97R) as substrate in presence of [gamma-33P]ATP by scintillation counting method
Serine/threonine-protein kinase B-raf (Homo sapiens, UniProt P15056, V600E), sequence (P15056 2-766 V600E limits assumed): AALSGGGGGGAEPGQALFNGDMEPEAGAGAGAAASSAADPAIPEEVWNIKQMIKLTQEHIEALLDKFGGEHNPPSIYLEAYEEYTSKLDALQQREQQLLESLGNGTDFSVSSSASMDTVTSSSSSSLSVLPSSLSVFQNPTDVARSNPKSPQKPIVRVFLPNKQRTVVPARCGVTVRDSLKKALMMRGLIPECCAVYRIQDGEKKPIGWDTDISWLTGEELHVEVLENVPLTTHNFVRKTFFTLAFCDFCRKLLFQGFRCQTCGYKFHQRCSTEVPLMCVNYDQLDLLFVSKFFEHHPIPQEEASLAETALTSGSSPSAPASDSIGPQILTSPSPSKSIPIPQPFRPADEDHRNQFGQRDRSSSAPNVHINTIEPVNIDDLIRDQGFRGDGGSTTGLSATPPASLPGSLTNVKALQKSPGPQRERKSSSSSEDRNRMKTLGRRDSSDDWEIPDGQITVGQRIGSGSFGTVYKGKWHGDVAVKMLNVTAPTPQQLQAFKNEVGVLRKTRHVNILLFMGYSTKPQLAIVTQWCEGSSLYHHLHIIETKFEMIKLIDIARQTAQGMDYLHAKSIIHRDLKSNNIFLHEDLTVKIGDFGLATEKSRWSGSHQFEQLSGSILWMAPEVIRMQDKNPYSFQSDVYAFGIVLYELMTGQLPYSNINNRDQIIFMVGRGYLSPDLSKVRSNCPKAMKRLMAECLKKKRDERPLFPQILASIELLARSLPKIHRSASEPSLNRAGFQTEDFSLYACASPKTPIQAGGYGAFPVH

MOLT-4 = experiment: Growth inhibition of human MOLT-4 cells measured after 48 hrs by SRB assay; type: functional
HCC 2998 = experiment: Growth inhibition of human HCC 2998 cells measured after 48 hrs by SRB assay; type: functional
SF-539 = experiment: Growth inhibition of human SF-539 cells measured after 48 hrs by SRB assay; type: functional
HCT-116 [11] = experiment: Induction of apoptosis in human HCT-116 cells assessed as early apoptotic cells at 1.25 uM measured after 24 hrs by Annexin-V Alexa Fluor488/propidium iodide staining based flow cytometry (reference value: 6.3%); type: functional
NCI-H460 = experiment: Growth inhibition of human NCI-H460 cells measured after 48 hrs by SRB assay; type: functional
BT-549 = experiment: Growth inhibition of human BT-549 cells measured after 48 hrs by SRB assay; type: functional
HCT-116 [12] = experiment: Growth inhibition of human HCT-116 cells measured after 48 hrs by SRB assay; type: functional
LOX IMVI = experiment: Growth inhibition of human LOX IMVI cells measured after 48 hrs by SRB assay; type: functional; details: for CC50: read-out: LC50 (the source's name)
PC-3 = experiment: Growth inhibition of human PC-3 cells measured after 48 hrs by SRB assay; type: functional
A498 = experiment: Growth inhibition of human A498 cells measured after 48 hrs by SRB assay; type: functional
[13] = molecular target: Serine/threonine-protein kinase B-raf (Homo sapiens, UniProt P15056); experiment: Inhibition of human BRAF using MEK1 (K97R) as substrate in presence of [gamma-33P]ATP by scintillation counting method
Serine/threonine-protein kinase B-raf (Homo sapiens, UniProt P15056), sequence (P15056 whole entry): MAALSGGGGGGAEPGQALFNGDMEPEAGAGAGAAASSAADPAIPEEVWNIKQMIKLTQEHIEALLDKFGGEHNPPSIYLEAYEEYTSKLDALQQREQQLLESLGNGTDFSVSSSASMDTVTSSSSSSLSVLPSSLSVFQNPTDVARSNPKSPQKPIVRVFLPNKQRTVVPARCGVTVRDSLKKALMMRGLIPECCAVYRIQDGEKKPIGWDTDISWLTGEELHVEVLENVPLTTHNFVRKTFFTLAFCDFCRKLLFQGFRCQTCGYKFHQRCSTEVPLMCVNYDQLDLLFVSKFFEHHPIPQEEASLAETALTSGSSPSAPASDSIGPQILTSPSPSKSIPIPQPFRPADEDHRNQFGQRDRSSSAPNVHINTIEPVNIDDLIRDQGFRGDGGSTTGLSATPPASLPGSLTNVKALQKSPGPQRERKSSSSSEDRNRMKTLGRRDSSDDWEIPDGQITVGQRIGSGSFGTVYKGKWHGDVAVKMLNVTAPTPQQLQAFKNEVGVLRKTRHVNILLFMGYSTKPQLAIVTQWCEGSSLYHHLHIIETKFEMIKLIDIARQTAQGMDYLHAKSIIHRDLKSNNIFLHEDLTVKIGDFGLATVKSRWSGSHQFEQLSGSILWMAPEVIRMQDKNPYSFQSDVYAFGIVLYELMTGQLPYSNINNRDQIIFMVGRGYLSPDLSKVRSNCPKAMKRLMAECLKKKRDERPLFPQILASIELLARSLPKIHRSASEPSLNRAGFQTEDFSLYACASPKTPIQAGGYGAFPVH

UO-31 = experiment: Growth inhibition of human UO-31 cells measured after 48 hrs by SRB assay; type: functional
OVCAR-4 = experiment: Growth inhibition of human OVCAR-4 cells measured after 48 hrs by SRB assay; type: functional
HCT-116 [14] = experiment: Induction of apoptosis in human HCT-116 cells assessed as early apoptotic cells at 1.25 uM measured after 48 hrs by Annexin-V Alexa Fluor488/propidium iodide staining based flow cytometry (reference value: 7.7%); type: functional
HCT-116 [15] = experiment: Cell cycle arrest in human HCT-116 cells assessed as increase in G0/G1-phase accumulation measured after 24 to 48 hrs by propidium iodide staining based flow cytometry; type: functional; details: dose 1.25-5 µM, time 24-48 hrs

COc1cccc2nc(Nc3cccc(NC(=O)c4ccc(N5CCN(C)CC5)c(C(F)(F)F)c4)c3)ccc12
Activity (HCT-116 [1]): 2.7%
GI50 (SF-268): 1500 nM
GI50 (DU-145): 1810 nM
GI50 (COLO 205): 909 nM
IC50 [2]: 2250 nM
viability at 48 h, 10 µM [3]: 66.1%
GI50 (HOP-92): 854 nM
TGI (HOP-92): 4030 nM
CC50 (HOP-92): 18800 nM
Activity (HCT-116 [4]): 5.4%
GI50 (HCT-15): 937 nM
GI50 (MCF7): 851 nM
LC50 (MCF7): 4250 nM
TGI (MCF7): 1900 nM
viability at 48 h, 1 µM [5]: 97%
GI50 (OVCAR-8): 1690 nM
Activity (Sus scrofa): Active
GI50 (HL-60(TB)): 1070 nM
Activity (HCT-116 [6]): 7.9%
GI50 (SR): 1130 nM
GI50 (RXF 393): 802 nM
GI50 (SK-MEL-28): 896 nM
Activity (HCT-116 [7]): 11%
GI50 (IGROV-1): 1250 nM
LC50 (IGROV-1): 25600 nM
TGI (IGROV-1): 4240 nM
Activity (HCT-116 [8]): 1.7%
GI50 (SN12C): 1700 nM
GI50 (NCI-H322M): 1650 nM
Activity (HCT-116 [9]): 6.1%
GI50 (ACHN): 1530 nM
GI50 (NCI-H23): 2930 nM
GI50 (T47D): 1000 nM
IC50 [10]: 1460 nM
GI50 (MOLT-4): 876 nM
GI50 (HCC 2998): 950 nM
GI50 (SF-539): 895 nM
Activity (HCT-116 [11]): 4.7%
GI50 (NCI-H460): 964 nM
GI50 (BT-549): 2790 nM
GI50 (HCT-116 [12]): 868 nM
LC50 (HCT-116 [12]): 4100 nM
TGI (HCT-116 [12]): 1890 nM
GI50 (LOX IMVI): 873 nM
TGI (LOX IMVI): 1570 nM
CC50 (LOX IMVI): 2830 nM
GI50 (PC-3): 1260 nM
GI50 (A498): 1800 nM
IC50 [13]: 2940 nM
GI50 (UO-31): 734 nM
LC50 (concentration killing 50% of cells) (UO-31): 3040 nM
TGI (UO-31): 1490 nM
GI50 (OVCAR-4): 1430 nM
Activity (HCT-116 [14]): 14%
Activity (HCT-116 [15]): Dose-dependent effect

CCN1CCN(c2cc(C(=O)Nc3cccc(Nc4ccc5c(OC)cccc5n4)c3)cc(C(F)(F)F)c2)CC1
Activity (HCT-116 [1]): 0.3%
GI50 (SF-268): 1760 nM
GI50 (DU-145): 1880 nM
GI50 (COLO 205): 654 nM
IC50 [2]: 538 nM
viability at 48 h, 10 µM [3]: 68.2%
GI50 (HOP-92): 1260 nM
TGI (HOP-92): 4660 nM
CC50 (HOP-92): 16600 nM
Activity (HCT-116 [4]): 0.6%
GI50 (HCT-15): 798 nM
GI50 (MCF7): 679 nM
LC50 (MCF7): 17600 nM
TGI (MCF7): 2280 nM
viability at 48 h, 1 µM [5]: 91.2%
GI50 (OVCAR-8): 1970 nM
Activity (Sus scrofa): Active
GI50 (HL-60(TB)): 3820 nM
Activity (HCT-116 [6]): 19.3%
GI50 (SR): 883 nM
GI50 (RXF 393): 918 nM
GI50 (SK-MEL-28): 846 nM
Activity (HCT-116 [7]): 0.4%
GI50 (IGROV-1): 924 nM
LC50 (IGROV-1): 20000 nM
TGI (IGROV-1): 5230 nM
Activity (HCT-116 [8]): 0.6%
GI50 (SN12C): 1390 nM
GI50 (NCI-H322M): 1330 nM
Activity (HCT-116 [9]): 15.6%
GI50 (ACHN): 1210 nM
GI50 (NCI-H23): 3410 nM
GI50 (T47D): 2050 nM
IC50 [10]: 888 nM
GI50 (MOLT-4): 616 nM
GI50 (HCC 2998): 720 nM
GI50 (SF-539): 3280 nM
Activity (HCT-116 [11]): 12.5%
GI50 (NCI-H460): 1340 nM
GI50 (BT-549): 3780 nM
GI50 (HCT-116 [12]): 872 nM
LC50 (HCT-116 [12]): 12400 nM
TGI (HCT-116 [12]): 3540 nM
GI50 (LOX IMVI): 780 nM
TGI (LOX IMVI): 1960 nM
CC50 (LOX IMVI): 7040 nM
GI50 (PC-3): 805 nM
GI50 (A498): 4940 nM
IC50 [13]: 2230 nM
GI50 (UO-31): 746 nM
LC50 (concentration killing 50% of cells) (UO-31): 12400 nM
TGI (UO-31): 3880 nM
GI50 (OVCAR-4): 1570 nM
Activity (HCT-116 [14]): 16.6%
Activity (HCT-116 [15]): Dose-dependent effect
